Measured values published in patent publication US7241795B2, “Synthesis and antimicrobial activity of novel dicationic “reversed amidines”” (The University of North Carolina at Chapel Hill, priority 2000, dated 2007).
≈ marks a conversion by molar mass, not a printed value. Like-named read-outs stand apart in the source and are kept apart here.

Columns and labels:
Aspergillus fumigatus = experiment: Antifungal broth macrodilution susceptibility testing (MIC/MFC), mold; format: cell-based; details: for MIC80: 80% of inoculum inhibited
M. tuberculosis H37Rv = experiment: Microplate Alamar Blue Assay (MABA) in BACTEC 12B medium; format: cell-based, Mycobacterium tuberculosis; details: Mycobacterium tuberculosis, H37RV; lowest concentration effecting ≧90% reduction of fluorescence; read-out: MTb MIC
d(CGCGAATTCGCG)2 = experiment: DNA thermal melting (ΔTm); format: binding; details: oligo = d(CGCGAATTCGCG)2
poly dA•dT = experiment: DNA thermal melting (ΔTm); format: binding
other pathogenic fungi = experiment: Expanded fungus panel, overall; format: cell-based
Protocol: Antifungal Test Organisms. The fungi used in this study for all the compounds in Table 1 included two reference strains C. albicans A39 and Aspergillus fumigatus (strain 168.95).
Medium. Antifungal susceptibility testing was performed with RPMI 1640 medium (Sigma Chemical Co., St. Louis, Mo.) with glutamine, but without sodium bicarbonate and buffered at pH 7.0 with 0.165 M morpholinopropanesulfonic acid.
Antifungal In Vitro Susceptibility Testing. Experiments for determination of MICs of yeasts were performed by the broth macrodilution method according to the recommendations of the National Committee for Clinical Laboratory Standards. See National Committee for Clinical Laboratory Standards. Reference method for broth dilution susceptibility testing of yeasts Document M27-T. Tentative standard, National Committee for Clinical Laboratory Standards, Wayne, Pa., 1995). […] Briefly, this method specifies the use of an inoculum grown at 35° C. and adjusted to a concentration of 0.5×10^3 to 2.5×10^3 CFU/ml, incubation of the culture at 35° C., and reading at 48 h for all yeasts except for C. neoformans, for which the results are interpreted at 72 h. […]
The minimum fungicidal concentration (MFC) was determined by plating 100 μl aliquots from tubes showing complete inhibition of growth on Sabouraud agar plates. The lowest drug concentration that yielded three or fewer colonies was recorded as the MFC. […]

Candida albicans = experiment: Antifungal broth macrodilution susceptibility testing (MIC/MFC), yeast; format: cell-based; details: for MIC / MFC / MIC80: Candida albicans; for MIC80: 80% of inoculum inhibited
Crytococcus neoformans = experiment: Expanded fungus panel, broth macrodilution (MIC/MFC), yeast; format: cell-based; details: Cryptococcus neoformans, Crytococcus neoformans isolate H99
Aspergillus flavus = experiment: Expanded fungus panel, broth macrodilution (MIC/MFC), mold; format: cell-based; details: for MIC: Aspergillus flavus, 100% of inoculum inhibited
Rhizopus arrhizus = experiment: as above; format: cell-based
Fusarium solani = experiment: as above; format: cell-based
[1] = Aspergillus fumigatus, strain 168.95, read-out: Aspergillus fumigatus MIC
[2] = reference strain C. albicans A39, read-out: C. albicans MFC
[3] = reference strain C. albicans A39, read-out: C. albicans MIC
[4] = Aspergillus flavus isolate 107.96
[5] = Aspergillus flavus isolate 141.88

SMILES: COc1cc(N=Nc2ccccn2)ccc1-c1ccc(-c2ccc(N=Nc3ccccn3)cc2OC)o1 [Compound 6k, 2,5-Bis[2-methoxy-4-(2-pyridylimino)aminophenyl]furan]
- activity against Aspergillus fumigatus, in words (Aspergillus fumigatus): fungicidal
- MIC (Aspergillus fumigatus; Aspergillus fumigatus, read-out: Aspergillus fumigatus MIC): ≤ 1 µg/mL
- MFC (Aspergillus fumigatus; Aspergillus fumigatus, strain 168.95, read-out: Aspergillus fumigatus MFC): ≤ 1 µg/mL
- MIC (Aspergillus fumigatus; [1]): 1 µg/mL (≈ 2.04 µM)
- MIC (M. tuberculosis H37Rv): 1 to 2 µg/mL (≈ 2.04 to 4.08 µM)
- DNA Affinities ΔTm (oligo) (d(CGCGAATTCGCG)2): 7.8
- DNA Affinities ΔTm (AT) (poly dA•dT): 19.0
- activity in the expanded fungus panel, in words (other pathogenic fungi): did not show significant activity
- activity against C. albicans, in words (Candida albicans): fungicidal
- MIC (Candida albicans; read-out: C. albicans MIC): ≤ 1 µg/mL
- MFC (Candida albicans; [2]): ≤ 1 µg/mL
- MIC (Candida albicans; [3]): ≤ 2 µg/mL

SMILES: Cc1ccc(N=Nc2ccc(-c3ccc(-c4ccc(N=Nc5ccc(C)cn5)cc4C)o3)c(C)c2)nc1 [Compound 6j, 2,5-Bis[2-methyl-4-(5-methyl-2-pyridylimino)aminophenyl]furan]
- activity against Aspergillus fumigatus, in words (Aspergillus fumigatus): less effective
- MFC (Aspergillus fumigatus; Aspergillus fumigatus isolate 119.00, read-out: MFC): > 100 µg/mL
- MFC (Aspergillus fumigatus; Aspergillus fumigatus isolate 153.90): >100 µg/mL
- MFC (Aspergillus fumigatus; Aspergillus fumigatus isolate 165.86): >100 µg/mL
- MFC (Aspergillus fumigatus; Aspergillus fumigatus isolate 168.95, expanded panel): >100 µg/mL
- MFC (Aspergillus fumigatus; Aspergillus fumigatus isolate 182.99): >100 µg/mL
- MIC80 (Aspergillus fumigatus; Aspergillus fumigatus, Aspergillus fumigatus isolate 119.00): 3.12 µg/mL (≈ 6.41 µM)
- MIC (Aspergillus fumigatus; Aspergillus fumigatus, Aspergillus fumigatus isolate 119.00, 100% of inoculum inhibited, read-out: MIC 100%): 50 µg/mL (≈ 103 µM)
- MIC80 (Aspergillus fumigatus; Aspergillus fumigatus, Aspergillus fumigatus isolate 153.90): 3.12 µg/mL (≈ 6.41 µM)
- MIC (Aspergillus fumigatus; Aspergillus fumigatus, Aspergillus fumigatus isolate 153.90, 100% of inoculum inhibited, read-out: MIC 100%): 50 µg/mL (≈ 103 µM)
- MIC80 (Aspergillus fumigatus; Aspergillus fumigatus, Aspergillus fumigatus isolate 165.86): 50 µg/mL (≈ 103 µM)
- MIC (Aspergillus fumigatus; Aspergillus fumigatus, Aspergillus fumigatus isolate 165.86, 100% of inoculum inhibited, read-out: MIC 100%): 50 µg/mL (≈ 103 µM)
- MIC80 (Aspergillus fumigatus; Aspergillus fumigatus, Aspergillus fumigatus isolate 168.95): 50 µg/mL (≈ 103 µM)
- MIC (Aspergillus fumigatus; Aspergillus fumigatus, Aspergillus fumigatus isolate 168.95, 100% of inoculum inhibited, read-out: MIC 100%): 50 µg/mL (≈ 103 µM)
- MIC80 (Aspergillus fumigatus; Aspergillus fumigatus, Aspergillus fumigatus isolate 182.99): 3.12 µg/mL (≈ 6.41 µM)
- MIC (Aspergillus fumigatus; Aspergillus fumigatus, Aspergillus fumigatus isolate 182.99, 100% of inoculum inhibited, read-out: MIC 100%): 50 µg/mL (≈ 103 µM)
- MIC (Aspergillus fumigatus; [1]): 10 µg/mL (≈ 20.6 µM)
- MIC (M. tuberculosis H37Rv): 1 to 2 µg/mL (≈ 2.06 to 4.11 µM)
- MFC (Crytococcus neoformans): > 100 µg/mL
- MIC80 (Crytococcus neoformans; 80% of inoculum inhibited): 1.56 µg/mL (≈ 3.21 µM)
- MIC (Crytococcus neoformans; 100% of inoculum inhibited): 1.56 µg/mL (≈ 3.21 µM)
- activity versus Aspergillus flavus, in words (Aspergillus flavus): less effective
- MFC (Aspergillus flavus; [4]): >100 µg/mL
- MIC 80% (Aspergillus flavus; Aspergillus flavus isolate 107.96, 80% of inoculum inhibited): 3.12 µg/mL (≈ 6.41 µM)
- MFC (Aspergillus flavus; [5]): >100 µg/mL
- MIC 80% (Aspergillus flavus; Aspergillus flavus isolate 141.88, 80% of inoculum inhibited): 3.12 µg/mL (≈ 6.41 µM)
- MIC80 (Aspergillus flavus; Aspergillus flavus isolate 194.99, 80% of inoculum inhibited): 3.12 µg/mL (≈ 6.41 µM)
- MFC (Aspergillus flavus; Aspergillus flavus isolate 194.99, read-out: MFC): > 100 µg/mL
- MIC (Aspergillus flavus; [4]): 50 µg/mL (≈ 103 µM)
- MIC (Aspergillus flavus; [5]): 50 µg/mL (≈ 103 µM)
- MIC (Aspergillus flavus; Aspergillus flavus isolate 194.99): 6.25 µg/mL (≈ 12.8 µM)
- activity versus Rhizopus arrhizus, in words (Rhizopus arrhizus): good fungicidal activity
- MFC (Rhizopus arrhizus; Rhizopus arrhizus isolate 117.89): 1.56 µg/mL (≈ 3.21 µM)
- MIC80 (Rhizopus arrhizus; Rhizopus arrhizus isolate 117.89, 80% of inoculum inhibited): 0.78 µg/mL (≈ 1.6 µM)
- MIC (Rhizopus arrhizus; Rhizopus arrhizus isolate 117.89, 100% of inoculum inhibited): 1.56 µg/mL (≈ 3.21 µM)
- DNA Affinities ΔTm (oligo) (d(CGCGAATTCGCG)2): 10.8
- activity against Fusarium solani, in words (Fusarium solani): not very effective
- MFC (Fusarium solani; Fusarium solani isolate 152.89): 50 µg/mL (≈ 103 µM)
- MIC80 (Fusarium solani; Fusarium solani isolate 152.89, 80% of inoculum inhibited): 3.12 µg/mL (≈ 6.41 µM)
- MIC (Fusarium solani; Fusarium solani isolate 152.89, 100% of inoculum inhibited): 50 µg/mL (≈ 103 µM)
- DNA Affinities ΔTm (AT) (poly dA•dT): 24.3
- activity against C. albicans, in words (Candida albicans): quite effective
- MIC80 (Candida albicans; Candida albicans isolate 116.98): 1.56 µg/mL (≈ 3.21 µM)
- MIC (Candida albicans; Candida albicans isolate 116.98, 100% of inoculum inhibited, read-out: MIC 100%): 1.56 µg/mL (≈ 3.21 µM)
- MFC (Candida albicans; Candida albicans isolate 116.98, read-out: MFC): > 100 µg/mL
- MIC80 (Candida albicans; Candida albicans isolate 117.00): 0.78 µg/mL (≈ 1.6 µM)
- MIC (Candida albicans; Candida albicans isolate 117.00, 100% of inoculum inhibited, read-out: MIC 100%): 3.12 µg/mL (≈ 6.41 µM)
- MFC (Candida albicans; Candida albicans isolate 117.00, read-out: MFC): 25 µg/mL (≈ 51.4 µM)
- MIC80 (Candida albicans; Candida albicans isolate 126.97): 1.56 µg/mL (≈ 3.21 µM)
- MIC (Candida albicans; Candida albicans isolate 126.97, 100% of inoculum inhibited, read-out: MIC 100%): 3.12 µg/mL (≈ 6.41 µM)
- MFC (Candida albicans; Candida albicans isolate 126.97, read-out: MFC): 3.12 µg/mL (≈ 6.41 µM)
- MIC80 (Candida albicans; Candida albicans isolate 149.97): 0.78 µg/mL (≈ 1.6 µM)
- MIC (Candida albicans; Candida albicans isolate 149.97, 100% of inoculum inhibited, read-out: MIC 100%): 1.56 µg/mL (≈ 3.21 µM)
- MFC (Candida albicans; Candida albicans isolate 149.97, read-out: MFC): 6.25 µg/mL (≈ 12.8 µM)
- MIC80 (Candida albicans; Candida albicans isolate 156.97): 1.56 µg/mL (≈ 3.21 µM)
- MIC (Candida albicans; Candida albicans isolate 156.97, 100% of inoculum inhibited, read-out: MIC 100%): 3.15 µg/mL (≈ 6.47 µM)
- MFC (Candida albicans; Candida albicans isolate 156.97, read-out: MFC): > 100 µg/mL
- MIC80 (Candida albicans; Candida albicans isolate 159.95): 0.79 µg/mL (≈ 1.62 µM)
- MIC (Candida albicans; Candida albicans isolate 159.95, 100% of inoculum inhibited, read-out: MIC 100%): 1.58 µg/mL (≈ 3.25 µM)
- MFC (Candida albicans; Candida albicans isolate 159.95, read-out: MFC): 3.12 µg/mL (≈ 6.41 µM)
- MIC80 (Candida albicans; Candida albicans isolate A39): 1.56 µg/mL (≈ 3.21 µM)
- MIC (Candida albicans; Candida albicans isolate A39, 100% of inoculum inhibited, read-out: MIC 100%): 1.56 µg/mL (≈ 3.21 µM)
- MFC (Candida albicans; Candida albicans isolate A39, expanded panel, read-out: MFC): 25 µg/mL (≈ 51.4 µM)
- MIC (Candida albicans; read-out: C. albicans MIC): ≤ 1 µg/mL
- MFC (Candida albicans; [2]): 10 µg/mL (≈ 20.6 µM)
- MIC (Candida albicans; [3]): ≤ 2 µg/mL
